Laboratory results reported in patent US20220339257A1, “METHODS TO INCREASE THE SENSITIVITY AND REVERSING THE RESISTANCE TO DRUGS” (Biomarker Strategies, LLC, priority 2019, published 2022).

Tests used:
Format in all cases: cell-based
[1] = system: HCC827 (EGFR deletion mutant line); assay: MTT cell survival assay; conditions: 10 ng/ml of EM2 combined with erlotinib, 72 hours
Procedure: (§1) Cells (10^4 cells/well) were grown in 96-well plates and exposed for 72 hours to different doses of erlotinib, alone or in combination with EM2. The percentage of cell survival was determined using the 3-(4, 5-dimethylthiazol-2-yl)-2, 5-diphenyltetrazolium bromide (MTT). Single drug alone and vehicle were kept as controls.

H1581 (EGFR WT) = assay: MTT cell survival assay; conditions: EM2 (10, 30, 50 ng/ml) combined with Erlotinib 7 μM; Erl-resistant EGFR WT cells
Procedure: as §1

[2] = system: H1975 (EGFR-double mutant line); assay: MTT cell survival assay; conditions: EM2 10 ng/ml combined with erlotinib; Erl-resistant H1975; 72 hours
Procedure: as §1

[3] = system: clinical sample; HS2170 and Calu-6 cells; assay: HoPI assay (Hoechst 33342 and propidium iodide); conditions: Osimertinib in combination with EM2
Description: (§2) A double stain of Hoechst 33342 and propidium iodide allows for the determination of cell viability with high specificity and low background noise, as compared to trypan blue staining. Hoechst 33342 is a cell permeable blue fluorescent nuclear stain which will stain all cell types. Propidium iodide is a cell impermeable red fluorescent nuclear stain that will only bind to the nuclei of cells with compromised membranes (dead cells). The staining can be performed rapidly on live cell suspensions within 15 minutes. 25 uL of 4× Hoechst 33342 Solution (40 ug/mL) and 25 uL of 4×Propidium Iodide Solution are added to 50 uL of cell suspension. The suspension was gently mixed 10 times and 50 uL was immediately transferred to a microfluidic cell counting chip. A 365 nm LED was used to excite both Hoechst 33342 and propidium iodide. Images of the cells were captured using a 10× objective lens on an Olympus microscope using a Canon EOS 6D camera using an ISO of 800 and an exposure of 2 seconds; both JPEG and RAW images were saved for analysis. The blue channel was used to measure the total number of cells and the red channel was used to measure the number of dead cells. Cell counting was performed automatically by the Image Pro software (Media Cybernetics, Inc).

[4] = system: clinical sample (WT EGFR tumor, patient who smoked); assay: Immunocytochemistry biomarker staining of a clinical sample; conditions: erlotinib+EM2 combination
Procedure: Cells at the seeding density of 10,000 cells per well were plated in 8 chamber slides in complete RPMI culture medium for overnight. After 24h cells were treated with RPMI media without the serum along with selected dose of erlotinib+EM2 and kept for additional 72 hours in incubation condition set at 37° C. in a humidified atmosphere of 95% air and 5% CO2. The chamber slides were rinsed with PBS before performing ICC staining. An Ambay kit (Catalog #10011A) purchased from Ambay Immune Sensors and Controls, LLC (AISC) (MD, USA) was used to perform ICC staining as per the kit instructions and using poly-HRP from Biogenix (CA, USA) was used to enable signal amplification and detection of specific bound antibody targets. A respective isotype antibody control was be kept for each biomarker. Counterstaining was performed before mounting and analysis.

Ca-922 cell line = assay: HoPI live cell staining; parameters: concentration or dose not given beside the values; conditions: 24 hours
Description: as §2
MTA and EM effects on apoptosis were measured by Hoechst-Propidium Iodide staining (HoPI). For the assay, cells were seeded in 6-well plates at 400K cells per well, in 2 mL of 10% FBS-containing media and incubated for 24 hours. At 24 hours, a 1 nM to […] range of MTA and/or 1 ng/mL to 1 mg/mL range of EM doses was added and incubated for 24 hours. After 24 hours incubation respective cells' media was collected, added the 1× HBSS wash from the plate in the respective tube. Adherent cells were detached by treating with Accutase for 6 minutes and collected in respective tubes. All samples were centrifuged for 5 minutes at 1200 RPM. The cell pellets were resuspended in PBS and centrifuged again for 5 minutes at 1200 RPM. Cell pellets were resuspended in 200 uL of PBS and mixed properly to get single cell suspension. 50 uL of cell suspension was added into separate tubes having 10 uL of a 2× HOPI solution (20 ug/mL Hoechst 33342 and 20 ug/mL propidium iodide solution) to get a final concentration of Hoechst 33342 and propidium iodide to […]. Make up the volume to 100 uL with 40 uL of PBS. Samples were mixed thoroughly for even cell staining and the microfluidsic chip wells were each filled with 10 uL of sample. Chips were then incubated in the dark for 20 minutes. A 365 nm LED was used to excite both Hoechst 33342 and propidium iodide as they were visualize under a microscope. Cell images were captured using a 10× objective lens on an Olympus microscope using a Canon EOS 6D camera with an ISO of 800 and an exposure of 2 seconds; both JPEG and RAW images were saved for analysis. The blue channel was used to measure the total number of cells and the red channel was used to measure the number of dead cells. For image analysis, a copy of the image was created and converted directly into an 8-bit gray scale image. A threshold was placed on the image to create a binary mask; the threshold level was 20 intensity units out of 255 intensity units. Next, a particle analysis algorithm was applied to the binary mask and a set of cellular regions (between 100 to 800 cellular regions per image) was created. The original image was then split into red, green and blue channels. The area, mean intensity, standard deviation of the mean intensity, minimum intensity, maximum intensity and perimeter were measured for each cellular region in the red channel and also in the blue channel. The green channel was discarded. To discern between live and dead cells, the maximum intensity in the red channel was used with a threshold of 100 intensity units. Double plots were created using the intensity of the blue channel (X-axis) and the intensity of the red channel (Y-axis). […]

RPMI-1975 = assay: HoPI live cell staining; conditions: 24 hours
Description: as §2
MTA and EM effects on apoptosis were measured by Hoechst-Propidium Iodide staining (HoPI). For the assay, cells were seeded in 6-well plates at 400K cells per well, in 2 mL of 10% FBS-containing media and incubated for 24 hours. At 24 hours, a 1 nM to […] range of MTA and/or 1 ng/mL to 1 mg/mL range of EM doses was added and incubated for 24 hours. After 24 hours incubation respective cells' media was collected, added the 1× HBSS wash from the plate in the respective tube. Adherent cells were detached by treating with Accutase for 6 minutes and collected in respective tubes. All samples were centrifuged for 5 minutes at 1200 RPM. […] The area, mean intensity, standard deviation of the mean intensity, minimum intensity, maximum intensity and perimeter were measured for each cellular region in the red channel and also in the blue channel. […]

tumor necrosis factor-alpha [EM2]
cell survival (MTT), sensitivity to erlotinib [1]: increased sensitivity to Erl | cell survival (MTT), sensitization to erlotinib (H1581 (EGFR WT)): sensitized to Erl | cell survival (MTT), response to erlotinib [2]: enhanced response | cell death (HoPI assay) [3]: increase in cell death | cell apoptosis (nuclear staining of Bcl2, nuclear vacuolization) [4]: promoted cell apoptosis | reduction in the number of live cells (HoPI) (Ca-922 cell line; osimertinib and TNFa in combination): 67% | reduction in the number of live cells (HoPI) (Ca-922 cell line; single agent): 21% | reduction in live cells (HoPI) (RPMI-1975; GSK458 and TNFa in combination): 68% | reduction in live cells (HoPI) (RPMI-1975; single agent): 8%

B1: interferon-alpha-1 (protein, UniProt P01562 24-189, looked up)
Interferon alpha-1/13: CDLPETHSLDNRRTLMLLAQMSRISPSSCLMDRHDFGFPQEEFDGNQFQKAPAISVLHELIQQIFNLFTTKDSSAAWDEDLLDKFCTELYQQLNDLEACVMQEERVGETPLMNADSILAVKKYFRRITLYLTEKKYSPCAWEVVRAEIMRSLSLSTNLQERLRRKE
notes: enhancer molecule, cytokine purchased from Sigma
reduction in the number of live cells (HoPI) (Ca-922 cell line; GSK458 and IFNa in combination): 26% | reduction in the number of live cells (HoPI) (Ca-922 cell line; single agent): 24%
